Data taken from patent publication US9611248B2, “Chemical compounds” (Syngenta Participations AG, priority 2013, dated 2017).

System: a variety of test species
Test: Post-emergence herbicidal activity
Type: in vivo
Set-up: key to ABUTH (Abutilon theophrasti) damage score / AMARE (Amaranthus retroflexus) damage score / ALOMY (Alopecurus myosuroides) damage score / ECHCG (Echinochloa crus-galli) damage score / ZEAMX (Zea mays) damage score / SOLNI (Solanum nigrum) damage score: 0 = no damage to plant, 5 = total damage to plant
Details: rate 1000 g/ha, evaluated after 13 days
Protocol: Seeds of a variety of test species were sown in standard soil in pots. After 8 days cultivation (post-emergence) under controlled conditions in a glasshouse (at 24/16° C., day/night; 14 hours light; 65% humidity), the plants were sprayed with an aqueous spray solution derived from the formulation of the technical active ingredient in acetone/water (50:50) solution containing 0.5% Tween 20 (polyoxyethelyene sorbitan monolaurate, CAS RN 9005-64-5). The test plants were then grown in a glasshouse under controlled conditions (at 24/16° C., day/night; 14 hours light; 65% humidity) and watered twice daily. After 13 days, the test was evaluated (5=total damage to plant; 0=no damage to plant, NC=not captured).

Row | SMILES | ABUTH (Abutilon theophrasti) damage score | ALOMY (Alopecurus myosuroides) damage score | AMARE (Amaranthus retroflexus) damage score | ECHCG (Echinochloa crus-galli) damage score | SETFA (Setaria faberi) damage score | ZEAMX (Zea mays) damage score | SOLNI (Solanum nigrum) damage score
1 | CCC1=C(Br)C(O)N(c2cc(C(C)(C)C#N)ncn2)C1=O (racemic) [CB2] | 3 | 1 | 3 | 1 | 0 | 0 | –
2 | COC1=C(C)C(=O)N(c2cc(Cl)ncn2)C1O (racemic) [CD2] | 2 | 3 | 5 | 3 | 4 | 1 | –
3 | COC1=C(C)C(=O)N(c2cc(C(C)(C)C)ncn2)C1O (racemic) [CD3] | 5 | 5 | 5 | 5 | 5 | 3 | –
4 | COC1=C(C)C(=O)N(c2cc(C(F)(F)F)ncn2)C1O (racemic) [CD4] | 5 | 5 | 3 | 5 | 5 | 1 | –
5 | COC1=C(C)C(=O)N(c2cc(Br)ncn2)C1O (racemic) [CD5] | 3 | 1 | 4 | 1 | 2 | 0 | –
6 | CCN(C)c1cc(N2C(=O)C(C)=C(OC)C2O)ncn1 (racemic) [CD6] | 3 | 2 | 3 | 0 | 2 | 0 | –
7 | COC1=C(C)C(=O)N(c2cc(N(C)C)ncn2)C1O (racemic) [CD7] | 2 | 0 | 2 | 0 | 0 | 0 | –
8 | COC1=C(C)C(=O)N(c2cc(C(C)(C)C#N)ncn2)C1O (racemic) [CD8] | 5 | 5 | 5 | 5 | 5 | 3 | –
9 | COC1=C(Br)C(=O)N(c2cc(C(C)(C)C)ncn2)C1O (racemic) [CE1] | 4 | 2 | 5 | 3 | 4 | 1 | –
10 | COC1=C(Cl)C(=O)N(c2cc(C(C)(C)C)ncn2)C1O (racemic) [CF1] | 4 | 1 | 2 | 4 | 4 | 1 | –
11 | CC1=C(Cl)C(O)N(c2nccc(C(C)(C)C)n2)C1=O (racemic) [DA1] | 4 | 4 | 3 | 4 | 5 | 0 | –
12 | COC1=C(C)C(=O)N(c2nccc(C(C)(C)C)n2)C1O (racemic) [DD1] | 4 | 4 | 4 | 5 | 4 | 1 | –
13 | COC1=C(C)C(=O)N(c2nccc(N(C)C)n2)C1O (racemic) [DD2] | 0 | 0 | 1 | 1 | 0 | 1 | –
14 | COC1=C(C)C(=O)N(c2ncc(Cl)c(N(C)C)n2)C1O (racemic) [DD3] | 3 | 2 | 4 | 2 | 6 | 1 | –
15 | CCO/C=C\c1cnc(N2C(=O)C(C)=C(Cl)C2O)cc1C(F)(F)F (stereo not drawn) [AA1] | 5 | 3 | 5 | 5 | 5 | 1 | –
16 | CC(C)=C(C)c1cnc(N2C(=O)C(C)=C(Cl)C2O)cc1C(F)(F)F (stereo not drawn) [AA2] | 4 | 2 | 5 | 2 | 4 | 2 | –
17 | CC1=C(Cl)C(O)N(c2nccc(C(F)(F)F)c2F)C1=O (stereo not drawn) [AA4] | 1 | 1 | 1 | 0 | 1 | 2 | –
18 | CC1=C(Cl)C(O)N(c2cc(C(C)C)c(C(=O)OC(C)C)cn2)C1=O (stereo not drawn) [AA9] | 4 | 2 | 4 | 1 | 1 | 1 | –
19 | CC1=C(Cl)C(O)N(c2cc(C)c(Br)cn2)C1=O (stereo not drawn) [AA10] | 0 | 1 | 3 | 1 | 2 | 1 | –
20 | CC1=C(Cl)C(O)N(c2cc(C)ccn2)C1=O (stereo not drawn) [AA13] | 5 | 3 | 4 | 4 | 4 | 0 | –
21 | CC1=C(Cl)C(O)N(c2cc(Cl)c(Cl)cn2)C1=O (stereo not drawn) [AA16] | 0 | 1 | 0 | 1 | 3 | 1 | –
22 | CC1=C(Cl)C(O)N(c2cc(C#N)ccn2)C1=O (stereo not drawn) [AA20] | 1 | 1 | 0 | 1 | 1 | 0 | –
23 | CC1=C(Cl)C(O)N(c2cc(C(F)(F)F)c(Br)cn2)C1=O (stereo not drawn) [AA25, 1-[5-bromo-4-(trifluoromethyl)-2-pyridyl]-3-chloro-2-hydroxy-4-methyl-2H-pyrrol-5-one] | 1 | 2 | 5 | 3 | 3 | 1 | –
24 | CC1=C(Cl)C(O)N(c2cc(C(F)(F)F)c(Cl)cn2)C1=O (stereo not drawn) [AA26] | 1 | 2 | 5 | 3 | 3 | 0 | –
25 | CC1=C(Cl)C(O)N(c2cc(Br)ccn2)C1=O (stereo not drawn) [AA31] | – | 1 | 5 | 2 | 3 | 0 | 5
26 | CC1=C(Cl)C(O)N(c2ccc(Cl)cn2)C1=O (stereo not drawn) [AA32] | – | 0 | 0 | 0 | 2 | 0 | 2
27 | CC1=C(Cl)C(O)N(c2cc(Cl)ccn2)C1=O (stereo not drawn) [AA33] | – | 1 | 5 | 2 | 3 | 0 | 5
28 | CC1=C(Cl)C(O)N(c2cc(C(F)(F)F)ccn2)C1=O (stereo not drawn) [AA35] | – | 2 | 5 | 4 | 4 | 0 | 5
29 | CC1=C(Cl)C(O)N(c2ccc(C)cn2)C1=O (stereo not drawn) [AA36] | – | 1 | 4 | 2 | 1 | 0 | 3
30 | CC1=C(Cl)C(O)N(c2ccc(OC(F)(F)F)cn2)C1=O (stereo not drawn) [AA38] | 1 | 1 | 4 | 1 | 1 | 0 | –
